Laboratory results from patent US20260138981A1, “DIHYDROFOLATE REDUCTASE INHIBITORS FOR ANTI-BIOTIC RESISTANT INFECTIONS” (THE TRUSTEES OF PRINCETON UNIVERSITY, priority 2022, published 2026).
≈ marks a conversion by molar mass, not a printed value.

Assays:
[1] = test system: A. baumannii ATCC 17978; assay: MIC, WuXi, Mueller-Hinton Broth; type: cell-based; settings: Acinetobacter baumannii, ATCC17978, performed by WuXi in Mueller-Hinton Broth
Procedure: (§1) For MICs calculations performed by WuXi (Shanghai, China), MIC was calculated as the lowest concentration that inhibits visible growth after 18 hours. 4-8 bacterial colonies of strains of interest were vortexed in saline and adjusted to an OD600 of 0.2. Strains were diluted 1:200 into CAMHB media into 96-well plates. Antibiotics were serially diluted 1:3 in DMSO, and 1 μL of each dilution was added to bacteria. The plates were incubated for 18-20 hours at 37° C. before observation.

[2] = test system: E. coli ATCC BAA-198; assay: MIC, WuXi, Mueller-Hinton Broth; type: cell-based; settings: Escherichia coli, ATCCBAA198, performed by WuXi in Mueller-Hinton Broth
Procedure: as §1

[3] = test system: E. faecalis ATCC 51575; assay: MIC, WuXi, Mueller-Hinton Broth; type: cell-based; settings: Enterococcus faecalis, ATCC51575, performed by WuXi in Mueller-Hinton Broth
Procedure: as §1

[4] = test system: S. aureus NRS384; assay: MIC, WuXi, Mueller-Hinton Broth; type: cell-based; settings: Staphylococcus aureus, performed by WuXi in Mueller-Hinton Broth
Procedure: as §1

[5] = test system: S. typhimurium CMCC 50115; assay: MIC, WuXi, Mueller-Hinton Broth; type: cell-based; settings: Salmonella enterica, performed by WuXi in Mueller-Hinton Broth
Procedure: as §1

[6] = test system: E. coli MG1655; assay: MIC in LB Broth; type: cell-based; settings: Escherichia coli, 16 hours at 37° C. in LB Broth, OD600
Procedure: (§2) The minimum inhibitory concentration is defined as the lowest concentration of antibiotic at which no visible growth was detected after 16 hours at 37° C. Overnight cultures were diluted 1:150 in LB Broth and added to a 96-well plate. Antibiotics were serially diluted 1:2 and added to columns of the 96-well plate and grown at 37° C. with continuous shaking. Cell growth was measured by optical density (OD600). MIC assays were performed in either BioTek Synergy HT (Winooski, VT) or Tecan InfiniteM200 Pro (Männedorf, CH) microplate readers.

[7] = test system: K. pneumoniae ATCC 438165; assay: MIC in LB Broth; type: cell-based; settings: Klebsiella pneumoniae, ATCC438165, 16 hours at 37° C. in LB Broth, OD600
Procedure: as §2

[8] = test system: S. aureus USA300; assay: MIC in LB Broth; type: cell-based; settings: Staphylococcus aureus, 16 hours at 37° C. in LB Broth, OD600
Procedure: as §2

[9] = test system: S. epidermidis EGM-206; assay: MIC in LB Broth; type: cell-based; settings: Staphylococcus epidermidis, EGM206, 16 hours at 37° C. in LB Broth, OD600
Procedure: as §2

[10] = molecular target: T1, purified E. coli DHFR (FolA) (Escherichia coli, UniProt P0ABQ4); assay: In vitro DHFR (FolA) activity, NADPH consumption at 340 nm; type: biochemical; settings: Hill equation fit
T1 construct: purchased Genscript (Piscataway, NJ)

[11] = molecular target: T2, purified human DHFR (Homo sapiens, UniProt P00374); assay: Human DHFR in vitro assay; type: biochemical
T2 construct: purchased R&D Systems 8456-DR
Procedure: FIG. 1E is an analogous assay to FIG. 2B using purified human DHFR.
Human purified DHFR was purchased from R&D Systems (8456-DR). DHFR activity was assayed by monitoring the decrease in absorbance by NADPH at […]. DHFR enzyme (0.5 μg/mL), dihydrofolic acid (100 μM), and different concentrations of methotrexate, fluorofolin, or DMSO control was dissolved in 200 μL of Tris buffer (pH 7.5, Tris salt concentration 25 mM). Reaction was initiated by adding NADPH in a 10× stock (1 mM for final concentration 100 μM), and absorbance at 340 nm was monitored over time by Cytation 5 reader (Agilent). Activity was normalized to the DMSO control.

[12] = test system: S. epidermidis, E. cloacae, E. faecalis, K. pneumoniae, and S. aureus; assay: Growth of other species with TMI supplementation; type: cell-based; settings: fluorofolin 2×MIC, 0.3 mM TMI
Procedure: (§3) Where listed, growth media were prepared according manufacturer recommendations: LB Broth and LB Broth supplemented with 0.3 mM thymine (BD Biosciences 244610, Alfa Aesar A15879), 0.3 mM methionine (Sigma-Aldrich M9625), 0.3 mM inosine (EMD Millipore 4060), Mueller Hinton II Broth (Cation-Adjusted)/(CAMHB) (BD 212322) or 0.3 mM thymidine (Sigma-Aldrich T1895), Gutnick Minimal Media (1.0 g/L K2SO4, 13.5 g/L K2HPO4, 4.7 g/L KH2PO4, 0.1 g/L of MgSO4-7H2O, 10 mM NH4Cl as a nitrogen source, and 0.4% w/v glucose as a carbon source)^62.

[13] = test system: E. coli lptd34213; assay: Growth with thymidine supplementation; type: cell-based; settings: fluorofolin 50 μg/mL, 0.3 mM thymidine; also with SMX
Procedure: FIG. 6F quantifies P. aeruginosa PA14 or E. coli lptd4213 treated with fluorofolin 50 μg/mL in the presence or absence of 0.3 mM thymidine.
FIG. 6G quantifies E. coli lptd4213 treated with fluorofolin 50 μg/mL and SMX (78.1 μg/mL) in the presence or absence of 0.3 mM thymidine or 0.3 mM TMI supplementation, Curves represent optical at 600 nm (OD600) of 2 biological replicates. Mean±SD are shown.
as §3

## Nc1nc(N)c2c(ccc3c2ccn3Cc2ccnc(F)c2)n1 [fluorofolin]
[1]
  MIC: 0.8 µg/mL (≈ 2.59 µM)
[2]
  MIC: 7.11 µg/mL (≈ 23.1 µM)
[3]
  MIC: 0.01 µg/mL (≈ 0.0324 µM)
[4]
  MIC: 0.03 µg/mL (≈ 0.0973 µM)
[5]
  MIC: 0.03 µg/mL (≈ 0.0973 µM)
[6]
  MIC: 0.625 µg/mL
[7]
  MIC: 6.25 µg/mL
[8]
  MIC: 0.4 µg/mL
[9]
  MIC: 0.312 µg/mL
[10]
  IC50: 2.5 ± 1.1 nM
[11]
  IC50: 14 ± 4 nM
[12]
  rescue of growth inhibition by TMI supplementation: could also be rescued from fluorofolin growth inhibition
[13]
  rescue of growth inhibition by thymidine supplementation alone: Rescue from fluorofolin inhibition was also shown
